Patent US20040063649A1, “Azithromycin combination for emesis control in mammals” (Pfizer Inc, priority 1999, published 2004)

Legend:
emesis in ferrets = conditions: vomiting caused by intragastric copper sulfate and ipecac syrup, subcutaneous loperamide, intraperitoneal cisplatin; cited from earlier work
[1] = test system: azithromycin-induced emesis in random source dogs; test: Control of azithromycin-induced emesis in random source dogs; assay type: in vivo, dog; conditions: for Emetic Dogs/Total Dogs: Random source dogs, 0 minutes before (simultaneously with) azithromycin 10 mg/kg
Experimental: (§1) The ability of various compounds to control azithromycin-induced emesis in dogs was measured in 13 studies using two groups of dogs. The majority of the studies were conducted using a family (dam and offspring) of 12 azithromycin-sensitive English pointers, bred and maintained by Young Veterinary Research Services of Turlock, Calif. The remaining studies were conducted using random source dogs maintained at the Pfizer Animal Health Research facility in Terre Haute, Ind. In all studies, azithromycin was administered in immediate release formulations at a dose of 10 mg/kg.
(§2) Four studies were conducted to titrate the dose of CP122,721 for maximum antiemetic activity with and without a delay between oral antiemetic and oral azithromycin dosing. […] While these studies were in progress, random source dogs (8 per-treatment) were administered 0, 1.5 or 3 mg/kg CP122,721 simultaneously with 10 mg/kg azithromycin. […] In the fourth study, the sensitive pointers received either 3 or 4 mg/kg CP122,721 simultaneously with azithromycin. The incidence of emesis was equivalent with one dog in each treatment group vomiting.

[2] = test system: azithromycin-induced emesis in azithromycin-sensitive English pointers; test: Control of azithromycin-induced emesis in an azithromycin-sensitive dog population; assay type: in vivo
Experimental: as §1
Initially, four commercialized antiemetic products and CP122,721 were screened individually in the azithromycin-sensitive population with a minimum 7 day washout period between antiemetic tests. Antiemetics were administered orally about 15 to 30 minutes prior to oral treatment with 10 mg/kg azithromycin in an immediate release tablet. […] Other antiemetics reduced the incidence of emesis by only about 10 to 42%.
as §2

[3] = antiemetic 1 mg/kg oral, 30 minutes before azithromycin 10 mg/kg oral immediate release tablet

COc1ccc(OC(F)(F)F)cc1CN[C@H]1CCCN[C@H]1c1ccccc1 [CP122,721, (2S,3S)-3-(2-methoxy-5-trifluoromethoxybenzyl)amino-2-phenylpiperidine]
effect on vomiting in ferrets (in words) (emesis in ferrets): reduces vomiting | Emetic Dogs/Total Dogs ([1]; CP122,721 1.5 mg/kg): 4/8 | Emetic Dogs/Total Dogs ([1]; CP122,721 3 mg/kg): 0/8 | incidence of emesis (in words) ([1]; random source dogs, 8 per treatment, 1.5 mg/kg simultaneously with 10 mg/kg azithromycin): not reduced | prevention of azithromycin emesis (in words) ([1]; random source dogs, 8 per treatment, 3 mg/kg simultaneously with 10 mg/kg azithromycin): completely effective | effective in preventing emesis ([2]; 5 mg/kg oral, about 15 to 30 minutes prior to oral azithromycin 10 mg/kg): 100% | Emetic Dogs/Total Dogs ([2]; Sensitive dogs, 30 minutes before azithromycin 10 mg/kg): 0/4 | Emetic Dogs/Total Dogs ([2]; Sensitive dogs, CP122,721 1 mg/kg oral, 30 minutes before azithromycin 10 mg/kg): 4/4 | Emetic Dogs/Total Dogs ([2]; Sensitive dogs, CP122,721 2.5 mg/kg oral, 0 minutes before (simultaneously with) azithromycin 10 mg/kg): 6/6 | Emetic Dogs/Total Dogs ([2]; Sensitive dogs, CP122,721 2.5 mg/kg oral, 30 minutes before azithromycin 10 mg/kg): 0/6 | Emetic Dogs/Total Dogs ([2]; Sensitive dogs, CP122,721 3 mg/kg, 0 minutes before (simultaneously with) azithromycin 10 mg/kg): 1/6 | Emetic Dogs/Total Dogs ([2]; Sensitive dogs, CP122,721 4 mg/kg, 0 minutes before (simultaneously with) azithromycin 10 mg/kg): 1/6 | Emetic Dogs/Total Dogs ([2]; Sensitive dogs, CP122,721 dose cell blank (third line of first titration), 30 minutes before azithromycin 10 mg/kg): 0/4 | Emetic Dogs/Total Dogs ([2]; antiemetic 5 mg/kg oral, 30 minutes before azithromycin 10 mg/kg oral immediate release tablet): 0/12 | emesis (in words) ([2]; sensitive pointers, 2.5 mg/kg simultaneously with azithromycin): all pointers were emetic | prevention of emesis (in words) ([2]; sensitive pointers, 2.5 mg/kg, 30 minutes prior to azithromycin): effective in preventing emesis | dogs vomiting in treatment group ([2]; sensitive pointers, 3 mg/kg simultaneously with azithromycin): one | dogs vomiting in treatment group ([2]; sensitive pointers, 4 mg/kg simultaneously with azithromycin): one

CN(C)CCOC(c1ccccc1)c1ccccc1.Cn1c(=O)c2[nH]c(Cl)nc2n(C)c1=O [Dimenhydrinate, reference compound]
Emetic Dogs/Total Dogs ([2]; antiemetic 8 mg/kg oral, 30 minutes before azithromycin 10 mg/kg oral immediate release tablet): 10/12

CCN(CC)CCNC(=O)c1cc(Cl)c(N)cc1OC [Metoclopramide, reference compound]
Emetic Dogs/Total Dogs ([2]; antiemetic 0.5 mg/kg oral, 15 minutes before azithromycin 10 mg/kg oral immediate release tablet): 11/12

Cc1nccn1CC1CCc2c(c3ccccc3n2C)C1=O (centres unmarked) [Ondansetron, reference compound]
Emetic Dogs/Total Dogs [2, 3]: 5/12 | reduction of the incidence of emesis ([2]; antiemetic oral about 15 to 30 minutes prior to oral azithromycin 10 mg/kg, doses as in Table 1): 58%

CN1CCN(CCCN2c3ccccc3Sc3ccc(Cl)cc32)CC1 [Prochlorperazine, reference compound]
Emetic Dogs/Total Dogs [2, 3]: 7/12
